From patent US20230045421A1 (priority 2018, published 2023)
Like-named read-outs stand apart in the source and are kept apart here.

System: HBV rcDNA
Test: HepDE19 assay with bDNA quantitation of HBV rcDNA
Assay type: cell-based, hepatitis B virus
Outline: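 Compounds, top concentration 25 μM in 8-point duplicate series, were applied to Tet-free HepDE19 cultures for 7 days. Branched-DNA quantitation of HBV rcDNA against untreated wells gave EC50 and EC90 by 4-parameter fit. Viability (CC50) came from ATP luminescence on parallel plates incubated 4 days.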

[1] = read-out: DE-19bDNA EC50; HepDE19 assay, inhibition of formation of rcDNA
[2] = read-out: DE-19bDNA EC50; HepDE19 assay, inhibition of formation of relaxed circular DNA (rcDNA), bDNA quantitation
[3] = HepDE19 assay, inhibition of formation of relaxed circular DNA (rcDNA), bDNA quantitation; read-out: DE-19bDNA EC50
[4] = Hepatitis B virus, HepDE19, HepDE19 assay, inhibition of formation of rcDNA; read-out: DE-19bDNA EC50
[5] = HepDE19 assay, inhibition of formation of rcDNA; read-out: DE-19bDNA EC50

CC(c1c[nH]c(=O)c2ccccc12)N(CC[C@H](C)O)C(=O)Nc1ccc(F)c(Cl)c1 (single isomer, unassigned) [Compound 213]
EC50 [1]: 3600 nM

CC(c1c[nH]c(=O)c2cc(F)c(F)cc12)N(C)C(=O)Nc1ccccc1 (single isomer, unassigned) [Compound 398, 1-(1-(6,7-Difluoro-1-oxo-1,2-dihydroisoquinolin-4-yl)ethyl)-1-methyl-3-phenylurea]
EC50 [2]: 16000 nM

CC(c1c[nH]c(=O)c2c(F)cc(F)cc12)N(C)C(=O)Nc1ccc(F)cc1 (single isomer, unassigned) [Compound 371, 1-(1-(6,8-Difluoro-1-oxo-1,2-dihydroisoquinolin-4-yl)ethyl)-3-(4-fluorophenyl)-1-methylurea]
EC50 [3]: 53 nM

COc1ncc(CNC(=O)Nc2ccc(F)c(C)c2)c2ccccc12 [Compound 7, 1-(4-Fluoro-3-methylphenyl)-3-((1-methoxyisoquinolin-4-yl)methyl)urea]
EC50 [4]: 12000 nM

O=C(Nc1ccc(F)c(Cl)c1)N(Cc1c[nH]c(=O)c2ccccc12)C1CC1 [Compound 42, 3-(3-Chloro-4-fluorophenyl)-1-cyclopropyl-1-((1-oxo-1,2-dihydroisoquinolin-4-yl)methyl)urea]
EC50 [4]: 810 nM

CCCCN(C(=O)Nc1ccc(F)c(Cl)c1)C(C)c1c[nH]c(=O)c2ccccc12 (single isomer, unassigned) [Compound 83, 1-Butyl-3-(3-chloro-4-fluorophenyl)-1-(1-(1-oxo-1,2-dihydroisoquinolin-4-yl)ethyl)urea]
EC50 [1]: 860 nM

COc1ncc([C@@H](C)N(CC(F)(F)F)C(=O)Nc2ccc(F)c(Cl)c2)c2ccccc12 [Compound 101, (R)-3-(3-Chloro-4-fluorophenyl)-1-(1-(1-methoxyisoquinolin-4-yl)ethyl)-1-(2,2,2-trifluoroethyl)urea]
EC50 [4]: 420 nM

CC(C)CN(C(=O)Nc1ccc(F)c(Cl)c1)C(C)c1c[nH]c(=O)c2cc(F)c(F)cc12 (single isomer, unassigned) [Compound 280, 3-(3-Chloro-4-fluorophenyl)-1-(1-(6,7-difluoro-1-oxo-1,2-dihydroisoquinolin-4-yl)ethyl)-1-isobutylurea]
EC50 [4]: 210 nM

CC(C)CN(C(=O)Nc1ccc(F)c(Cl)c1)C(C)c1cnc(-n2ccnn2)c2ccccc12 (racemic) [Compound 355, 1-(1-(1-(1H-1,2,3-Triazol-1-yl)isoquinolin-4-yl)ethyl)-3-(3-chloro-4-fluorophenyl)-1-isobutylurea]
EC50 (Hepatitis B virus, HepDE19, HepDE19 assay, inhibition of formation of relaxed circular DNA (rcDNA), bDNA quantitation; read-out: DE-19bDNA EC50): 18 nM

CC(c1c[nH]c(=O)c2c(F)c(F)ccc12)N(C)C(=O)Nc1ccc(F)c(C(F)F)c1 (single isomer, unassigned) [Compound 503, 1-(1-(7,8-Difluoro-1-oxo-1,2-dihydroisoquinolin-4-yl)ethyl)-3-(3-(difluoromethyl)-4-fluorophenyl)-1-methylurea]
EC50 [3]: 860 nM

CC(c1c[nH]c(=O)c2c(F)cccc12)N(CCCO)C(=O)Nc1ccc(F)c(Cl)c1 (single isomer, unassigned) [Compound 366, 3-(3-Chloro-4-fluorophenyl)-1-(1-(8-fluoro-1-oxo-1,2-dihydroisoquinolin-4-yl)ethyl)-1-(3-hydroxypropyl)urea]
EC50 [3]: 11000 nM

COCCN(C(=O)Nc1ccc(F)c(Cl)c1)C(C)c1cnc(OC)c2ccccc12 (single isomer, unassigned) [Compound 72, 3-(3-Chloro-4-fluorophenyl)-1-(2-methoxyethyl)-1-(1-(1-methoxyisoquinolin-4-yl)ethyl)urea]
EC50 [5]: 21000 nM

COc1ncc(CN(C)C(=O)Nc2ccc(F)c(Cl)c2)c2ccccc12 [Compound 2, 3-(3-Chloro-4-fluorophenyl)-1-((1-methoxyisoquinolin-4-yl)methyl)-1-methylurea]
EC50 [4]: 2000 nM

CCN(C(=O)Nc1ccc(F)cc1)C(C)c1c[nH]c(=O)c2cc(F)c(F)cc12 (single isomer, unassigned) [Compound 402, 1-(1-(6,7-Difluoro-1-oxo-1,2-dihydroisoquinolin-4-yl)ethyl)-1-ethyl-3-(4-fluorophenyl)urea]
EC50 [3]: 10000 nM

C[C@H](c1c[nH]c(=O)c2ccccc12)N(C)C(=O)Nc1ccc(F)c(C(F)(F)F)c1 [Compound 89, (R)-3-(4-Fluoro-3-(trifluoromethyl)phenyl)-1-methyl-1-(1-(1-oxo-1,2-dihydroisoquinolin-4-yl)ethyl)urea]
EC50 [4]: 320 nM

CCCCN(C(=O)Nc1ccc(F)c(Cl)c1)C(C)c1cnc(OC)c2ccccc12 (single isomer, unassigned) [Compound 61, 1-Butyl-3-(3-chloro-4-fluorophenyl)-1-(1-(1-methoxyisoquinolin-4-yl)ethyl)urea]
EC50 [5]: 80 nM

CC(c1c[nH]c(=O)c2cc(F)c(F)cc12)N(C)C(=O)Nc1cccc(F)c1F (single isomer, unassigned) [Compound 430, 1-(1-(6,7-Difluoro-1-oxo-1,2-dihydroisoquinolin-4-yl)ethyl)-3-(2,3-difluorophenyl)-1-methylurea]
EC50 [3]: 12000 nM

CC(c1c[nH]c(=O)c2ccc(Cl)cc12)N(C)C(=O)Nc1ccc(F)c(Cl)c1 (single isomer, unassigned) [Compound 171, 1-(1-(6-Chloro-1-oxo-1,2-dihydroisoquinolin-4-yl)ethyl)-3-(3-chloro-4-fluorophenyl)-1-methylurea]
EC50 [5]: 5400 nM

CC(C)CN(C(=O)Nc1ccc(F)cc1)C(C)c1cn(CC(F)(F)F)c(=O)c2ccccc12 (racemic) [Compound 235, 3-(4-Fluorophenyl)-1-isobutyl-1-(1-(1-oxo-2-(2,2,2-trifluoroethyl)-1,2-dihydroisoquinolin-4-yl)ethyl)urea]
EC50 [4]: 210 nM

CNc1ncc(C(C)N(C)C(=O)Nc2ccc(F)c(Cl)c2)c2nccnc12 (racemic) [Compound 136, 3-(3-chloro-4-fluorophenyl)-1-methyl-1-(1-(5-(methylamino)pyrido[3,4-b]pyrazin-8-yl)ethyl)urea]
EC50 [4]: 2800 nM

CCN(C(=O)Nc1ccccc1)C(C)c1c[nH]c(=O)c2cc(F)c(F)cc12 (single isomer, unassigned) [Compound 404, 1-(1-(6,7-Difluoro-1-oxo-1,2-dihydroisoquinolin-4-yl)ethyl)-1-ethyl-3-phenylurea]
EC50 [2]: 18000 nM

C[C@@H](c1c[nH]c(=O)c2ccccc12)N(C)C(=O)Nc1ccc(F)c(Cl)c1 [Compound 13, 3-(3-Chloro-4-fluorophenyl)-1-methyl-1-(1-(1-oxo-1,2-dihydroisoquinolin-4-yl)ethyl)urea]
EC50 [4]: 4700 nM

CC(c1c[nH]c(=O)c2cc(F)c(F)cc12)N(C)C(=O)Nc1ccccc1 (single isomer, unassigned) [Compound 399, 1-(1-(6,7-Difluoro-1-oxo-1,2-dihydroisoquinolin-4-yl)ethyl)-1-methyl-3-phenylurea]
EC50 [2]: 110 nM

CC(c1c[nH]c(=O)c2ccccc12)N(CCO)C(=O)Nc1ccc(F)c(Cl)c1 (single isomer, unassigned) [Compound 196, 3-(3-Chloro-4-fluorophenyl)-1-(2-hydroxyethyl)-1-(1-(1-oxo-1,2-dihydroisoquinolin-4-yl)ethyl)urea]
EC50 [5]: 20000 nM

Cc1cc(NC(=O)N(C)C(C)c2c[nH]c(=O)c3c(F)c(F)ccc23)ccc1F (single isomer, unassigned) [Compound 440, 1-(1-(7,8-Difluoro-1-oxo-1,2-dihydroisoquinolin-4-yl)ethyl)-3-(4-fluoro-3-methylphenyl)-1-methylurea]
EC50 [3]: 540 nM
